Measurements as given in paper PMC3445516 (PLoS ONE, 2012).
Read-outs that look alike come from different tables or passages of the source. Blank lines part the entries; values can stand above or below the compound they belong to.

Columns and labels:
Assay in all cases: Ambit kinase profiling, competition binding
CAMK4 = target: T1, CAMK4 (Homo sapiens, UniProt Q16566); details: for competition: 10 µM
T1 construct: purchased Ambit Biosciences (KINOMEscan)
T1 sequence (Q16566 1-473): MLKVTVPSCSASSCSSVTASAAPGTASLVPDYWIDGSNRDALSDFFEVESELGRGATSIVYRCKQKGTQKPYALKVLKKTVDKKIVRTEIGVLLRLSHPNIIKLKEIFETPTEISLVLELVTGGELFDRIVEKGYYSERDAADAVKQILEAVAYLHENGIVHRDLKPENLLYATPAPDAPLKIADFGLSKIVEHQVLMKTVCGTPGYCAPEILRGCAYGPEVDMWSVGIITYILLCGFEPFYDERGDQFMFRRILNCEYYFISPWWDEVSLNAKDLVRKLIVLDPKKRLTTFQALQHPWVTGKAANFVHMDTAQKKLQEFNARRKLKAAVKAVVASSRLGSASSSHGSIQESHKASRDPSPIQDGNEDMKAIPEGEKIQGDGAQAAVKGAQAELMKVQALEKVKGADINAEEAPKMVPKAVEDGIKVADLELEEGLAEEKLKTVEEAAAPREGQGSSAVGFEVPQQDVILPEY
Method: (§1) Also included in the kinase profile are four isoforms of PKC (δ, ε, η, θ) and eight isoforms of CAMKs (CAMKIα, δ, γ; CAMKIIα, β, δ, γ; CAMK4).
(§2) The global kinase profiling experiment was performed by Ambit Biosciences.

CLK2 = target: T2, CLK2 (Homo sapiens, UniProt P49760)
T2 construct: purchased Ambit Biosciences (KINOMEscan)
Method: as §1, §2

EPHA6 = target: T3, EPHA6 (Homo sapiens, UniProt Q9UF33)
T3 construct: purchased Ambit Biosciences (KINOMEscan)
T3 sequence (Q9UF33 23-1036): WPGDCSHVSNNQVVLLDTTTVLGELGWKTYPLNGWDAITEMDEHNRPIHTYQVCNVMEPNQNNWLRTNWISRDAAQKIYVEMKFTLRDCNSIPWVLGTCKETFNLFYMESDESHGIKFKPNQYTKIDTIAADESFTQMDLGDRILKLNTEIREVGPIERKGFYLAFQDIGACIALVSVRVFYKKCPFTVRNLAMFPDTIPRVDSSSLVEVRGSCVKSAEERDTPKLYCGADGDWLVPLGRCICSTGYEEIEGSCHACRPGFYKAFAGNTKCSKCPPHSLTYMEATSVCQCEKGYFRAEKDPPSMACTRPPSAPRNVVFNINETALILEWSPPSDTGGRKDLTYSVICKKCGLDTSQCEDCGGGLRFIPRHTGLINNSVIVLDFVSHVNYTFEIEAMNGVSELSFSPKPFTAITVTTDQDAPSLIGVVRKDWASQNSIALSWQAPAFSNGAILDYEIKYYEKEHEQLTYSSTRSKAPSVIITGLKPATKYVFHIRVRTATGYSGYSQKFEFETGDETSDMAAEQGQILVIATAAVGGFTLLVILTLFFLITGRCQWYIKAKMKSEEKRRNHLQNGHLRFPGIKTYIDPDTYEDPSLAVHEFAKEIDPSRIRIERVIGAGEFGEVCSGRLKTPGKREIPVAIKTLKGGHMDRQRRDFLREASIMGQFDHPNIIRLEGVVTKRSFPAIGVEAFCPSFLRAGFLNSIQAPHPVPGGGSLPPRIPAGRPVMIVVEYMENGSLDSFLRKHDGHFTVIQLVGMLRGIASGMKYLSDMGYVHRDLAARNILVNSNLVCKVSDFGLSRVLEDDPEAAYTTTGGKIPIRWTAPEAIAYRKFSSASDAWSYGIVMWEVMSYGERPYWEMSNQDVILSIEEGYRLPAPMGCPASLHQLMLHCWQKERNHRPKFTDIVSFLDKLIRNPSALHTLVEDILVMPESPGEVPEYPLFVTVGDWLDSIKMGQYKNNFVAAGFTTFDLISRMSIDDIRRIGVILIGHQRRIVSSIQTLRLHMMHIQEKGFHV
Method: as §1, §2

[1] = target: T4, JAK1 (JH2 domain-pseudokinase) (Homo sapiens, UniProt P23458); details: for % Competition: JAK1 (JH2 domain-pseudokinase), 10 µM
T4 construct: JAK1 (JH2 domain-pseudokinase); purchased Ambit Biosciences (KINOMEscan)
Method: as §1, §2

PKAC-beta = target: T5, PKAC-beta (Homo sapiens, UniProt P22694)
T5 construct: purchased Ambit Biosciences (KINOMEscan)
Method: as §1, §2

RET(M918T) = target: T6, RET(M918T) (Homo sapiens, UniProt P07949, M918T)
T6 construct: purchased Ambit Biosciences (KINOMEscan)
Method: as §1, §2

SYK = target: T7, SYK (Homo sapiens, UniProt P43405); details: for % Competition: 10 µM
T7 construct: purchased Ambit Biosciences (KINOMEscan)
Method: as §1, §2

TGFBR1 = target: T8, TGFBR1 (Homo sapiens, UniProt P36897)
T8 construct: purchased Ambit Biosciences (KINOMEscan)
T8 sequence (P36897 34-503): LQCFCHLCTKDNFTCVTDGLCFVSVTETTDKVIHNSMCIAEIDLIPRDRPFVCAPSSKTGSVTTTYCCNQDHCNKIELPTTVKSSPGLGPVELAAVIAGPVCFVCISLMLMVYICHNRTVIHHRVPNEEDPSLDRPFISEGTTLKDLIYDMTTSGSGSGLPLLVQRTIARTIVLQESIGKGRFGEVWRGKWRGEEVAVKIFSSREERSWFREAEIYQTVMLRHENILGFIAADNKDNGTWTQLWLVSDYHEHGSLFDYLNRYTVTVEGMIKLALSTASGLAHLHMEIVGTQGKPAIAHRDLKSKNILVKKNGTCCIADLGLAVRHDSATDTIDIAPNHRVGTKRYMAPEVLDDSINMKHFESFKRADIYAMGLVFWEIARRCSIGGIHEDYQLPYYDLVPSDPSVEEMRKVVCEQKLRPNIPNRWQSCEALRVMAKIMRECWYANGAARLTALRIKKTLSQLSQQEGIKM
Method: as §1, §2

T6 sequence (P07949 29-1114 M918T): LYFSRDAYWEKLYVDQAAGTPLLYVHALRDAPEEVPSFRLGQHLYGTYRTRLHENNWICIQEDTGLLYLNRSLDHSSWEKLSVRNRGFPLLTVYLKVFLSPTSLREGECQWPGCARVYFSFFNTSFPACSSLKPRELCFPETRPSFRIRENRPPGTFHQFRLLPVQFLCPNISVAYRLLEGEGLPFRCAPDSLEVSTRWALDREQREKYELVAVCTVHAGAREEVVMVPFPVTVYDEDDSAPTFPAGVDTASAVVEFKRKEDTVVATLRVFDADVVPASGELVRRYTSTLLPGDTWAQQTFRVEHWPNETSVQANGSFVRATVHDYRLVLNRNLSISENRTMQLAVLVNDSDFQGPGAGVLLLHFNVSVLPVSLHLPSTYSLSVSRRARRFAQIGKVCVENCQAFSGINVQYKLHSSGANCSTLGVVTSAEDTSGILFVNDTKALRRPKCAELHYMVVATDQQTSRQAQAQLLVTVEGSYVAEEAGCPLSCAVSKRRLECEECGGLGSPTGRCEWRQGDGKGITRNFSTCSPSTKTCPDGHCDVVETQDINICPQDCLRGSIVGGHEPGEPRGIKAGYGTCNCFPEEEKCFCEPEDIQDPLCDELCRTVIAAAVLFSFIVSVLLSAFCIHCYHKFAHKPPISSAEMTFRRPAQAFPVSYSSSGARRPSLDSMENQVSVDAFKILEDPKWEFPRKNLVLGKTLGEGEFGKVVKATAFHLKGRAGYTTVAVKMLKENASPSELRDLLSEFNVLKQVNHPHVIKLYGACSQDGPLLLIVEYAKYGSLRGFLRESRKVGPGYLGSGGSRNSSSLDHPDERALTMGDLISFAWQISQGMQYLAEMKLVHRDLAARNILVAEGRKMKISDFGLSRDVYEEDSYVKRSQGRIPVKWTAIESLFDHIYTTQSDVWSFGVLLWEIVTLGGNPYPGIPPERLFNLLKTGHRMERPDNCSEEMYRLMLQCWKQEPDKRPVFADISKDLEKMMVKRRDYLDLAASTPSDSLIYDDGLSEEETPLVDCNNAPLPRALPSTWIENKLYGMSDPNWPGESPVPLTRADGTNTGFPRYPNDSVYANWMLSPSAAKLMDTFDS
T2 sequence (P49760 whole entry): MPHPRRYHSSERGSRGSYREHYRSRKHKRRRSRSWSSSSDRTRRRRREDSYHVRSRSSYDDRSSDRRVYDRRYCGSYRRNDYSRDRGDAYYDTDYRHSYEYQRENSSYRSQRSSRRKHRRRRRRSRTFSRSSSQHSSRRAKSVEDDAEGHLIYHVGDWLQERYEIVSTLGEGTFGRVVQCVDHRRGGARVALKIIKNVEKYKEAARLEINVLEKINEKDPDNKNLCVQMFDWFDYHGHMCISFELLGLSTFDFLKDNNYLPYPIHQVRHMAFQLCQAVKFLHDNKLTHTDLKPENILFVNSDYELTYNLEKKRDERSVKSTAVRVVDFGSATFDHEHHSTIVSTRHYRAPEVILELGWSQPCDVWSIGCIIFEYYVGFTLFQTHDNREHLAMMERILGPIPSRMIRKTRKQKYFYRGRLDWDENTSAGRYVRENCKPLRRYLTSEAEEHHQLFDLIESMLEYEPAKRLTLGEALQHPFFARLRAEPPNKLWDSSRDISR
T4 sequence (P23458 583-855 limits assumed): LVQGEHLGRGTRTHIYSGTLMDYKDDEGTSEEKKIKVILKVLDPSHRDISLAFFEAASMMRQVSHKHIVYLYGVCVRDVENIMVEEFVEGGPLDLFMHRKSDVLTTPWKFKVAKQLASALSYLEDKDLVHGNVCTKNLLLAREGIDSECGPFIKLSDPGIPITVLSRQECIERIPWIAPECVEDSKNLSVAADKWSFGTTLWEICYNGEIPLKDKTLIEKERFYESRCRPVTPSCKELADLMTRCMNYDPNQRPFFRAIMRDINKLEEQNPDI

competition (CAMK4): < 50%
inhibition at 10 µM (CLK2; CLK2, 10 µM, read-out: % Competition): 97%
inhibition at 10 µM (EPHA6; EPHA6, 10 µM, read-out: % Competition): 93%
% Competition [1]: 99%
inhibition at 10 µM (PKAC-beta; PKAC-beta, 10 µM, read-out: % Competition): 67%
inhibition at 10 µM (RET(M918T); RET(M918T), 10 µM, read-out: % Competition): 68%
% Competition (SYK): 72%
inhibition at 10 µM (TGFBR1; TGFBR1, 10 µM, read-out: % Competition): 91%
SMILES: Fc1ccc(-c2c(-c3ccncc3)[nH]c3nccnc23)cc1 [Compound 122]

SMILES: CC(O)CNc1cc(-c2[nH]c3cccnc3c2-c2ccc(F)cc2)ccn1 (stereo not drawn) [Compound 140]
competition (CAMK4): < 50%
inhibition at 10 µM (CLK2; read-out: % Competition): < 50%
inhibition at 10 µM (EPHA6; read-out: % Competition): < 50%
% Competition [1]: 90%
inhibition at 10 µM (PKAC-beta; read-out: % Competition): < 50%
inhibition at 10 µM (RET(M918T); read-out: % Competition): < 50%
% Competition (SYK): <50%
inhibition at 10 µM (TGFBR1; read-out: % Competition): < 50%

inhibition at 10 µM (CAMK4; compound concentration 10 uM, read-out: Percent Competition): < 50%
inhibition at 10 µM (CLK2; CLK2, compound concentration 10 uM, read-out: Percent Competition): 97%
inhibition at 10 µM (EPHA6; EPHA6, compound concentration 10 uM, read-out: Percent Competition): 93%
Percent Competition ([1]; JAK1(JH2domain-pseudokinase), compound concentration 10 uM): 99%
inhibition at 10 µM (PKAC-beta; PKAC-beta, compound concentration 10 uM, read-out: Percent Competition): 67%
inhibition at 10 µM (RET(M918T); RET(M918T), compound concentration 10 uM, read-out: Percent Competition): 68%
Percent Competition (SYK; compound concentration 10 uM): 72%
inhibition at 10 µM (TGFBR1; TGFBR1, compound concentration 10 uM, read-out: Percent Competition): 91%
SMILES: Fc1ccc(-c2c(-c3ccncc3)[nH]c3nccnc23)cc1 [RO1155697-000-005]
